Where two headings read alike, the source gives them in different places.
Tests used:
[1] = system: small diameter mouse DRG neurons; type: cell-based
[2] = system: substantia gelatinosa (SG) neurons of the superficial dorsal horn
mouse Nav1.1 = mouse Nav1.1 (Mus musculus, UniProt A2APX8); type: cell-based; conditions: recombinant mouse Nav1.1
[3] = system: synaptosomes prepared from L4/L5 spinal cord sections; parameters: species or system mouse
Procedure: A lumbosacral laminectomy was performed and a segment of lumbar spinal cord was removed into a petri dish containing ice-cold pre-oxygenated aCSF. The dura mater, ventral and dorsal roots and the pia-arachnoid membrane were removed. A small segment of the spinal cord containing only the lumbar region (L4–L5) was dissected free, weighed and placed into ice-cold homogenization buffer composition (mM) 0.32 M sucrose, 10 mM HEPES (pH 7.4, bubbled with 100% O2). Spinal cord tissue was homogenized in buffer using 20 strokes of a glass/glass hand homogenizer. The crude homogenate was diluted with 3 mL of ice-cold homogenization buffer and centrifuged at 1000 x g for 5 mins at 4°C. Synaptosomes were isolated from the supernatant by an additional centrifugation at 20,000 x g for 2 mins at 4°C. The synaptosomal pellet was resuspended in 3 mL of Krebs buffer with composition (in mM): NaCl 118, KCl 2.4, CaCl2 2.4, MgSO4 1.2, KH2PO4 1.2, NaHCO3 25, glucose 10, pH 7.4 (bubbled with 95% O2 and 5% CO2). Protein quantification was performed on the synaptosomal solution using the Bradford colorimetric protein assay and bovine serum albumin standards. Samples were diluted to obtain a final concentration of 0.1 mg mL^-1 for CGRP evaluation and 100 μL samples of the synaptosomal solution was pipetted into eppendorfs. Synaptosomes were incubated at 37°C for 10 mins in the presence of test compounds or DMSO (1 μl total volume). Synaptosomes were stimulated using Veratridine 10 μM in the presence of Thiorphan (10 μM) and incubated for a further 10 mins at 37°C. Samples were then filtered using […] filters and 100 μl of the filtrate was transferred to CGRP ELISA plate (Bertin Pharma) and assayed according to the manufactures instructions.

mouse Nav1.7 = mouse Nav1.7 (Mus musculus, UniProt Q62205); type: cell-based
[4] = system: substantia gelatinosa (SG) neurons of the superficial dorsal horn; experiment: cells; conditions: Mus musculus, Neuron
WT mice = experiment: Capsaicin flare response in WT mice; type: in vivo, mouse; conditions: 55 mins, vehicle 4930 ± 751
[5] = system: small diameter mouse DRG neurons; experiment: Current clamp of action potentials in small diameter mDRG neurons; type: cell-based
Procedure: Dorsal root ganglia (DRG) were isolated and dissociated according to a previously published method. Briefly, DRGs were obtained from all spinal locations and dissociated neurons plated on glass coverslips pre-coated with poly-D-lysine/laminin (BD Biosciences) and left to adhere for 1.5–2 hrs before flooding. Growth media consisted of Lebovitz L-15 Glutamax (Life Technologies) supplemented with 10% FCS, 24 mM NaHCO3 and 38 mM glucose.
Electrophysiological recordings were obtained from stably transfected HEK 293 cells, acutely dissociated mouse DRG neurons, cultured human DRG neurons or mouse superficial dorsal horn neurons using either an Axopatch 200B or […] amplifier (Molecular Devices), or EPC-10 USB amplifier (HEKA). Small diameter mouse DRG neurons were identified as those with a whole cell capacitance between 10–25 pF [17]. For human DRG neurons, patch clamp recordings were obtained from small-to-medium diameter neurons (<60 μm), the majority of which have previously been classified as nociceptors.
ECS contained (in mM) 135 NaCl, 4.7 KCl, 1 CaCl2, 1 MgCl2, 10 HEPES and 10 glucose (300–310 mOsm, pH 7.4 with NaOH). ICS contained (in mM) 140 KCl, 0.5 EGTA, 5 HEPES, and 3 Mg-ATP, (pH 7.3 with KOH, 300–305 mOsm). Single action potentials were evoked from Vm -70 mV by a 20 ms suprathreshold current step (0.1 Hz).

[6] = system: substantia gelatinosa (SG) neurons; experiment: Current clamp action potentials in SG neurons of mouse spinal cord slices; type: cell-based; conditions: 30 nM
mDRG neurons = experiment: Action potential voltage clamp in mDRG neurons; type: cell-based, mouse; conditions: 30 nM, p < 0.05
Procedure: Recordings were performed as described in Blair & Bean (2002). Briefly, the internal solution contained (in mM): 140 K-Mes, 13.5 NaCl, 1.6 MgCl2, 0.09 EGTA, 9 HEPES, 0.9 glucose, 14 Tris-creatine PO4, 4 Mg-ATP, and 0.3 Tris-GTP (285–300 mOsm, pH 7.2 with KOH). The ECS was identical to that used for current clamp recordings (see above). Action potentials were recorded in current clamp mode following a 20 ms current injection from a Vm of -70 mV. The same cell was then examined under voltage-clamp (-70 mV) whereby the recorded action potential was used as the voltage command. Series resistance was compensated for by up to 80%.

mouse Nav1.7, sequence (Q62205 whole entry): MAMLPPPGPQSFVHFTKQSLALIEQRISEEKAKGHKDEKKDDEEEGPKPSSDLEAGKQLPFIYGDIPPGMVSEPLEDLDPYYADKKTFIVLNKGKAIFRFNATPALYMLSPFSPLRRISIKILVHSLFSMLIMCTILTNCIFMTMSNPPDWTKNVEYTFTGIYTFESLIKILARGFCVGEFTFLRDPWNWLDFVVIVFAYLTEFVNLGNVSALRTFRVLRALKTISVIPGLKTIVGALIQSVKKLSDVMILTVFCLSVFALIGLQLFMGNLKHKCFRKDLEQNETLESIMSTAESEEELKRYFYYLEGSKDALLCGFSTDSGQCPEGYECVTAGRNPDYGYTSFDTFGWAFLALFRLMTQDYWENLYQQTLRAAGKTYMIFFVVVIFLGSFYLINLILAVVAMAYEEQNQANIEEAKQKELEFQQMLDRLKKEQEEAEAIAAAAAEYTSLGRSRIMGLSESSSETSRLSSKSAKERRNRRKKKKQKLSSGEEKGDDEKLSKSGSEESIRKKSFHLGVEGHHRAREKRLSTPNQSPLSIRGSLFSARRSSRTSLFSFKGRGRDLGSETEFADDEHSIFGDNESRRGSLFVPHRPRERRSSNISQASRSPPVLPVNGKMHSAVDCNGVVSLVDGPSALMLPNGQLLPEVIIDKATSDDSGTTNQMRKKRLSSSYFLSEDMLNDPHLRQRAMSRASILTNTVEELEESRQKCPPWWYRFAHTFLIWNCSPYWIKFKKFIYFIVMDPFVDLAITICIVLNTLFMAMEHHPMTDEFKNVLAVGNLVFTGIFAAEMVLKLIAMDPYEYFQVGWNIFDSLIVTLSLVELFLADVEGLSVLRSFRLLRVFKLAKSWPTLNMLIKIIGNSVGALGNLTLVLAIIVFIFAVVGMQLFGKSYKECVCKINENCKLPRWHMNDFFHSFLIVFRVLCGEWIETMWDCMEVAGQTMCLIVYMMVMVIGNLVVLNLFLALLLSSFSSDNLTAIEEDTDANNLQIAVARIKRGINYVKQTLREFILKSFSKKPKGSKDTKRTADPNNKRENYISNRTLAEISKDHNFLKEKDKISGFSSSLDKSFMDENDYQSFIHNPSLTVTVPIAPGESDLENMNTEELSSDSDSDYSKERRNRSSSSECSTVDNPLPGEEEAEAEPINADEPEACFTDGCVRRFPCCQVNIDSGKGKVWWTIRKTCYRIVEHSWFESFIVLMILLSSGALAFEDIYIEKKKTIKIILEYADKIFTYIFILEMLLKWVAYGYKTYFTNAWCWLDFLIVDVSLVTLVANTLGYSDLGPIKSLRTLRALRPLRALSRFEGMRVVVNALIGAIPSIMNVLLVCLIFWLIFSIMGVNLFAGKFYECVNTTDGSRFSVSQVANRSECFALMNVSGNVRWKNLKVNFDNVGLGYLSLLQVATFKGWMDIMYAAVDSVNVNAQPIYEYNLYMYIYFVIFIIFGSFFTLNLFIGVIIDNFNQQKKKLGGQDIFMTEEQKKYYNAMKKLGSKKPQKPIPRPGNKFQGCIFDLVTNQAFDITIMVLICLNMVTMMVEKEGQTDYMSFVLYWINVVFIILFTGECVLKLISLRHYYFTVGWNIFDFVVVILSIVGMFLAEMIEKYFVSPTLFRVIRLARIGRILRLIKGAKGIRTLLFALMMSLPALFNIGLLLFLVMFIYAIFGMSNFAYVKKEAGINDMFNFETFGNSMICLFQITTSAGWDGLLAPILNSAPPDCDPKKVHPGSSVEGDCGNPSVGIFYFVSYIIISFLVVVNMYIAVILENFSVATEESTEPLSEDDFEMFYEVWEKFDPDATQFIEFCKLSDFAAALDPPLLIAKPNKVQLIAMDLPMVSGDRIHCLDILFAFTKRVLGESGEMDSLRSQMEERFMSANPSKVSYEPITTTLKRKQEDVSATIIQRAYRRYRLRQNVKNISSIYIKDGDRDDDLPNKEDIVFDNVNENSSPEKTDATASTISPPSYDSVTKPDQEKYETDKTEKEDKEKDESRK

COc1cc(NC(=O)c2ccc(-c3ccc(Cl)cc3)o2)cc(OC)c1 [A-803467]
Block of total Na+ current ([1]; 1 μM, small diameter mDRG neurons): 34.1 ± 3.0%

NS(=O)(=O)c1cccc2c1c([N+](=O)[O-])cc1nc(O)c(O)nc12 [NBQX]
Effect on Aδ and C fiber EPSCs ([2]; 5 μM, data not shown): completely abolished

Nc1n[nH]cc1-c1cc(C(F)(F)F)ccc1Oc1cc(F)c(S(=O)(=O)Nc2cscn2)cc1Cl [PF-05198007, 4-(2-(3-amino-1H-pyrazol-4-yl)-4-(trifluoromethyl)phenoxy)-5-chloro-2-fluoro-N-(thiazol-4-yl)benzenesulfonamide]
Latency of the C-fiber mediated EPSC ([2]; 30 nM applied to the dorsal root only, p < 0.05): delay in the latency
Slope (mouse Nav1.1): 0.7
Block of total TTX-S current ([1]; 30 nM, in presence of A-803467): 83.0 ± 2.7%
Veratridine evoked CGRP release ([3]; 30 nM, p < 0.05): significantly reduced
Veratridine evoked CGRP release ([3]; 100 nM, p < 0.05): significantly reduced
Slope (mouse Nav1.7): 1.1
inhibition at 0.03 µM ([4]; read-out: Inhibition of Aδ-fiber evoked EPSC amplitude): 46.9 ± 5.4%
inhibition at 0.03 µM ([4]; read-out: Inhibition of C-fiber evoked EPSC amplitude): 53.7 ± 10.1%
inhibition at 0.03 µM ([4]; read-out: Inhibition of C-fiber evoked EPSCs): 87 ± 9%
Capsaicin flare response, AUC (WT mice; 1 mg/kg oral): 1967 ± 472
Capsaicin flare response, AUC (WT mice; 10 mg/kg oral): 2265 ± 382
Neurons with action potential failure (complete block) ([5]; 30 nM, cells blocked/cells tested): 6/13
Spike amplitude ([5]; control 43.0 ± 3.3 mV): 37.7 ± 3.9 mV
Upstroke slope ([5]; control 137 ± 19 mV/ms): 86 ± 11 mV/ms
Action potential threshold ([5]; control -27.8 ± 2.0 mV): -22.8 ± 1.6 mV
Action potential rheobase ([5]; in presence of compound, control 173 ± 37 pA): 239 ± 47 pA
Action potential rheobase after washout ([5]; wash, control 173 ± 37 pA): 176 ± 35 pA
Effect on action potentials evoked by injection of depolarizing current [6]: no effects
Neurons with dorsal root evoked action potentials abolished [6]: 8 out of 9
Latency of inward current (mDRG neurons): increased latency
Peak amplitude of inward current (mDRG neurons): decrease in the peak amplitude

NC1=N[C@H](O)[C@H]2[C@H]3O[C@]4(O)O[C@@H]([C@@H](O)[C@@]2(N1)[C@@H]4O)[C@]3(O)CO [TTX, tetrodotoxin]
Effect on Aδ and C fiber EPSCs [2]: completely abolished
Effect on current remaining after A-803467 [1]: abolished

Cc1cccc(C)c1OCC(C)N (centres unmarked) [mexiletine, reference compound]
Veratridine evoked CGRP release [3]: significantly reduced

Reference: PMC4822888, “Subtype-Selective Small Molecule Inhibitors Reveal a Fundamental Role for Nav1.7 in Nociceptor Electrogenesis, Axonal Conduction and Presynaptic Release” (PLoS ONE, 2016)
